Measurements as given in the supplement of paper PMC9663587.

What was measured:
YKL-5-124 = compound: C=CC(=O)Nc1ccc(C(=O)Nc2[nH]nc3c2CN(C(=O)N[C@H](CN(C)C)c2ccccc2)C3(C)C)cc1 [YKL-5-124]; assay: increase in dead-cell fraction, 72 h; higher = more death;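 also: breast cancer cell lines in 384-well plates, stained with Hoechst plus LIVE/DEAD far red dye and imaged, cells above an LDR intensity threshold counted dead, Hoechst-negative corpses included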
BSJ-03-123 = compound: CC(=O)c1c(C)c2cnc(Nc3ccc(N4CCN(CCOCCOCCOCCNC(=O)COc5cccc6c5C(=O)N(C5CCC(=O)NC5=O)C6=O)CC4)cn3)nc2n(C2CCCC2)c1=O [BSJ-03-123]; assay: as above
[1] = compound: CC(=O)c1c(C)c2cnc(Nc3ccc(N4CCNCC4)cn3)nc2n(C2CCCC2)c1=O; assay: as above
[2] = compound: CCN1CCN(Cc2ccc(Nc3ncc(F)c(-c4cc(F)c5nc(C)n(C(C)C)c5c4)n3)nc2)CC1; assay: as above
Neratinib/HKI272 [3] = compound: T1, CCOc1cc2ncc(C#N)c(Nc3ccc(OCc4ccccn4)c(Cl)c3)c2cc1NC(=O)/C=C/CN(C)C [Neratinib/HKI272]; assay: as above
[4] = compound: CCc1cnn2c(NCc3ccc[n+]([O-])c3)cc(N3CCCC[C@H]3CCO)nc12; assay: as above
LEE011/Ribociclib = compound: CN(C)C(=O)c1cc2cnc(Nc3ccc(N4CCNCC4)cn3)nc2n1C1CCCC1 [LEE011/Ribociclib]; assay: as above
THZ531 = compound: CN(C)C/C=C/C(=O)Nc1ccc(C(=O)N2CCC[C@@H](Nc3ncc(Cl)c(-c4c[nH]c5ccccc45)n3)C2)cc1 [THZ531]; assay: as above
THZ1 = compound: CN(C)C/C=C/C(=O)Nc1ccc(C(=O)Nc2cccc(Nc3ncc(Cl)c(-c4c[nH]c5ccccc45)n3)c2)cc1 [THZ1]; assay: as above
Flavopiridol [5] = compound: T2, CN1CC[C@H](c2c(O)cc(O)c3c(=O)cc(-c4ccccc4Cl)oc23)[C@H](O)C1 [Flavopiridol]; assay: as above
Neratinib/HKI272 [6] = compound: T1, Neratinib/HKI272; assay: GR value, 72 h; higher = faster growth (1 = untreated, <0 = killing);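 also: breast cancer and non-malignant breast epithelial lines, nine half-log doses, viable cells counted by Hoechst and LIVE/DEAD dye imaging versus time-zero plates and DMSO controls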
Flavopiridol [7] = compound: T2, Flavopiridol; assay: as above

SUM190PT
increase in dead-cell fraction (YKL-5-124; 0.001 µM): 0.0072 | increase in dead-cell fraction (YKL-5-124; 0.003162 µM): 0.0099 | increase in dead-cell fraction (YKL-5-124; 0.01 µM): 0.0098 | increase in dead-cell fraction (YKL-5-124; 0.03162 µM): 0.0132 | increase in dead-cell fraction (YKL-5-124; 0.1 µM): 0.005 | increase in dead-cell fraction (YKL-5-124; 0.3162 µM): 0.0169 | increase in dead-cell fraction (YKL-5-124; 1 µM): 0.0033 | increase in dead-cell fraction (YKL-5-124; 3.162 µM): 0.0008 | increase in dead-cell fraction (YKL-5-124; 10 µM): 0.244 | increase in dead-cell fraction (BSJ-03-123; 0.001 µM): 0.0016 | increase in dead-cell fraction (BSJ-03-123; 0.003162 µM): -0.0004 | increase in dead-cell fraction (BSJ-03-123; 0.01 µM): 0.0082 | increase in dead-cell fraction (BSJ-03-123; 0.03162 µM): 0.018 | increase in dead-cell fraction (BSJ-03-123; 0.1 µM): 0.0114 | increase in dead-cell fraction (BSJ-03-123; 0.3162 µM): 0.0142 | increase in dead-cell fraction (BSJ-03-123; 1 µM): 0.0139 | increase in dead-cell fraction (BSJ-03-123; 3.162 µM): 0.0169 | increase in dead-cell fraction (BSJ-03-123; 10 µM): 0.243 | increase in dead-cell fraction ([1]; 0.0003162 µM): -0.0078 | increase in dead-cell fraction ([1]; 0.001 µM): -0.0072 | increase in dead-cell fraction ([1]; 0.003162 µM): -0.0095 | increase in dead-cell fraction ([1]; 0.01 µM): 0.0012 | increase in dead-cell fraction ([1]; 0.03162 µM): -0.0013 | increase in dead-cell fraction ([1]; 0.1 µM): 0.0119 | increase in dead-cell fraction ([1]; 0.3162 µM): 0.0131 | increase in dead-cell fraction ([1]; 1 µM): 0.0095 | increase in dead-cell fraction ([1]; 3.162 µM): 0.0058 | increase in dead-cell fraction ([2]; 0.001 µM): 0.001 | increase in dead-cell fraction ([2]; 0.003162 µM): 0.0059 | increase in dead-cell fraction ([2]; 0.01 µM): 0.0009 | increase in dead-cell fraction ([2]; 0.03162 µM): 0.0041 | increase in dead-cell fraction ([2]; 0.1 µM): 0.0078 | increase in dead-cell fraction ([2]; 0.3162 µM): 0.0015 | increase in dead-cell fraction ([2]; 1 µM): -0.0004 | increase in dead-cell fraction ([2]; 3.162 µM): 0.0076 | increase in dead-cell fraction ([2]; 10 µM): 0.32 | increase in dead-cell fraction (Neratinib/HKI272 [3]; 0.0003162 µM): -0.0031 | increase in dead-cell fraction (Neratinib/HKI272 [3]; 0.001 µM): -0.0024 | increase in dead-cell fraction (Neratinib/HKI272 [3]; 0.003162 µM): -0.0097 | increase in dead-cell fraction (Neratinib/HKI272 [3]; 0.01 µM): 0.0037 | increase in dead-cell fraction (Neratinib/HKI272 [3]; 0.03162 µM): -0.0082 | increase in dead-cell fraction (Neratinib/HKI272 [3]; 0.1 µM): 0.0008 | increase in dead-cell fraction (Neratinib/HKI272 [3]; 0.3162 µM): 0.0036 | increase in dead-cell fraction (Neratinib/HKI272 [3]; 1 µM): 0.0415 | increase in dead-cell fraction (Neratinib/HKI272 [3]; 3.162 µM): 0.0395 | increase in dead-cell fraction ([4]; 0.0001 µM): 0.0034 | increase in dead-cell fraction ([4]; 0.0003162 µM): 0.0047 | increase in dead-cell fraction ([4]; 0.001 µM): -0.0024 | increase in dead-cell fraction ([4]; 0.003162 µM): -0.0088 | increase in dead-cell fraction ([4]; 0.01 µM): -0.0098 | increase in dead-cell fraction ([4]; 0.03162 µM): 0.201 | increase in dead-cell fraction ([4]; 0.1 µM): 0.449 | increase in dead-cell fraction ([4]; 0.3162 µM): 0.477 | increase in dead-cell fraction ([4]; 1 µM): 0.49 | increase in dead-cell fraction (LEE011/Ribociclib; 0.001 µM): 0.0052 | increase in dead-cell fraction (LEE011/Ribociclib; 0.003162 µM): 0.0077 | increase in dead-cell fraction (LEE011/Ribociclib; 0.01 µM): 0.0145 | increase in dead-cell fraction (LEE011/Ribociclib; 0.03162 µM): 0.0159 | increase in dead-cell fraction (LEE011/Ribociclib; 0.1 µM): 0.0213 | increase in dead-cell fraction (LEE011/Ribociclib; 0.3162 µM): 0.0196 | increase in dead-cell fraction (LEE011/Ribociclib; 1 µM): 0.0239 | increase in dead-cell fraction (LEE011/Ribociclib; 3.162 µM): 0.0464 | increase in dead-cell fraction (LEE011/Ribociclib; 10 µM): 0.006 | increase in dead-cell fraction (THZ531; 0.0001 µM): -0.0012 | increase in dead-cell fraction (THZ531; 0.0003162 µM): 0.0006 | increase in dead-cell fraction (THZ531; 0.001 µM): 0.0192 | increase in dead-cell fraction (THZ531; 0.003162 µM): 0.0068 | increase in dead-cell fraction (THZ531; 0.01 µM): -0.0033 | increase in dead-cell fraction (THZ531; 0.03162 µM): 0.0143 | increase in dead-cell fraction (THZ531; 0.1 µM): 0.0893 | increase in dead-cell fraction (THZ531; 0.3162 µM): 0.636 | increase in dead-cell fraction (THZ531; 1 µM): 0.44 | increase in dead-cell fraction (THZ1; 0.0001 µM): -0.0051 | increase in dead-cell fraction (THZ1; 0.0003162 µM): -0.0051 | increase in dead-cell fraction (THZ1; 0.001 µM): -0.003 | increase in dead-cell fraction (THZ1; 0.003162 µM): 0.0428 | increase in dead-cell fraction (THZ1; 0.01 µM): 0.193 | increase in dead-cell fraction (THZ1; 0.03162 µM): 0.338 | increase in dead-cell fraction (THZ1; 0.1 µM): 0.269 | increase in dead-cell fraction (THZ1; 0.3162 µM): 0.106 | increase in dead-cell fraction (THZ1; 1 µM): 0.13 | increase in dead-cell fraction (Flavopiridol [5]; 0.0001 µM): -0.0004 | increase in dead-cell fraction (Flavopiridol [5]; 0.0003162 µM): -0.0016 | increase in dead-cell fraction (Flavopiridol [5]; 0.001 µM): -0.0005 | increase in dead-cell fraction (Flavopiridol [5]; 0.003162 µM): -0.0011 | increase in dead-cell fraction (Flavopiridol [5]; 0.01 µM): 0.0056 | increase in dead-cell fraction (Flavopiridol [5]; 0.03162 µM): 0.0019 | increase in dead-cell fraction (Flavopiridol [5]; 0.1 µM): 0.0046 | increase in dead-cell fraction (Flavopiridol [5]; 0.3162 µM): 0.0223 | increase in dead-cell fraction (Flavopiridol [5]; 1 µM): 0.082 | GR value (Neratinib/HKI272 [6]; 0.0003162 µM): 1.06 GR | GR value (Neratinib/HKI272 [6]; 0.001 µM): 1.04 GR | GR value (Neratinib/HKI272 [6]; 0.003162 µM): 1.06 GR | GR value (Neratinib/HKI272 [6]; 0.01 µM): 0.999 GR | GR value (Neratinib/HKI272 [6]; 0.03162 µM): 1.08 GR | GR value (Neratinib/HKI272 [6]; 0.1 µM): 0.956 GR | GR value (Neratinib/HKI272 [6]; 0.3162 µM): 0.915 GR | GR value (Neratinib/HKI272 [6]; 1 µM): 0.658 GR | GR value (Neratinib/HKI272 [6]; 3.162 µM): 0.429 GR | GR value (Flavopiridol [7]; 0.0001 µM): 0.999 GR | GR value (Flavopiridol [7]; 0.0003162 µM): 1.06 GR | GR value (Flavopiridol [7]; 0.001 µM): 0.935 GR | GR value (Flavopiridol [7]; 0.003162 µM): 0.883 GR | GR value (Flavopiridol [7]; 0.01 µM): 0.661 GR | GR value (Flavopiridol [7]; 0.03162 µM): 0.785 GR | GR value (Flavopiridol [7]; 0.1 µM): 0.58 GR | GR value (Flavopiridol [7]; 0.3162 µM): 0.0012 GR | GR value (Flavopiridol [7]; 1 µM): -0.382 GR
